Measured values taken from patent publication US8962842B2, “2-pyridone antimicrobial compositions” (priority 2010, dated 2015).
Like-named read-outs stand apart in the source and are kept apart here.

Legend:
[1] = system: Bacterial strains injected into thigh muscles; assay type: in vivo, mice; conditions: 30 mg/kg TDS p.o.
[2] = system: Group C Streptococcus (4 strains); assay: MIC range, broader panel of Quotient Bioresearch strains (Table 3)
[3] = system: Streptococcus pneumonia (5 strains); assay: as above; conditions: Streptococcus pneumoniae
[4] = system: Escherichia coli (6 strains); assay: MIC range, broader panel of Quotient Bioresearch strains (Table 4); assay type: cell-based
[5] = system: Burkholderia cepacia (5 strains); assay: as above; assay type: cell-based
[6] = system: Streptococcus pyogenes (4 strains); assay: MIC range, broader panel of Quotient Bioresearch strains (Table 3)
physchem = assay type: physicochemical; conditions: thermodynamic from solid
Method: The solutions were incubated at room temperature for 24 hours before quantification by HPLC detection. Aqueous solubility was evaluated in simulated gastric fluid (SGF), simulated intestinal fluid (SIF) and phosphate buffer saline (PBS) pH 7.4. Aqueous solubility is expressed in Table 11 as mean solubility in μM.

human topoisomerase I = molecular target: T1, human topoisomerase I (Homo sapiens, UniProt P11387); assay: Inhibition of topoisomerases activity in vitro, Topogen protocol TG1015 (Table 7); assay type: biochemical; conditions: read-out: IC50 hTopo I Assay
T1 construct: purchased Topogen Inc., Port Orange, USA TG1015
T1 sequence (P11387 1-765): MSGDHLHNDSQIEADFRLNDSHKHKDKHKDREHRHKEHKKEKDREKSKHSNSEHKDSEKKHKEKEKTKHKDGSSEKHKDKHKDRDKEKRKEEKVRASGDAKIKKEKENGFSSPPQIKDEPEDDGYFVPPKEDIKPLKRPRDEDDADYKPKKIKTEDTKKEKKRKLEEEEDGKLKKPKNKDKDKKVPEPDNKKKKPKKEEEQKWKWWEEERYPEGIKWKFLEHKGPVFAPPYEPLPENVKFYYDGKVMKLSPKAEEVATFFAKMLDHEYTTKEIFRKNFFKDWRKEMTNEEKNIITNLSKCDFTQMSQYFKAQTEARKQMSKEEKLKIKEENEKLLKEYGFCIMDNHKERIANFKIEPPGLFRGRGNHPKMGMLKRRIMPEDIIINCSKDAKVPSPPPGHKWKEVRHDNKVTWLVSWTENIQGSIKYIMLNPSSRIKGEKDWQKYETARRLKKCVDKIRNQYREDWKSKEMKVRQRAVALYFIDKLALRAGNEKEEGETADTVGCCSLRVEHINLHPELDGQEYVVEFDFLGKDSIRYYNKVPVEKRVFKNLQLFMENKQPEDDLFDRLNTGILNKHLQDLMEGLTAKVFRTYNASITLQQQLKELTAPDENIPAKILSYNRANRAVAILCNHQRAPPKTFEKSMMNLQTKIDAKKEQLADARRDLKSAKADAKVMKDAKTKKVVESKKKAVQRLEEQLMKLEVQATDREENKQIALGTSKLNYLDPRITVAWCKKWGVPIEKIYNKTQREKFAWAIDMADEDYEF

[7] = system: Enterococcus faecalis (5 strains); assay: MIC range, broader panel of Quotient Bioresearch strains (Table 3)
[8] = system: Haemophilus influenza (5 strains); assay: MIC range, broader panel of Quotient Bioresearch strains (Table 4); assay type: cell-based, Haemophilus influenzae
[9] = system: Staphylococcus aureus, quinolone-resistant strains (Quotient Bioresearch catalogue); assay: MIC against pathogens resistant against quinolones (Table 5); conditions: strain GP82, Staphylococcus aureus levofloxacin-resistant clinical isolate, amino acid changes GrlA, GrlB & GyrA
[10] = molecular target: bacterial topoisomerase IV (Escherichia coli, UniProt P0AFI2+P20083); assay: Inhibition of topoisomerases activity in vitro, Topogen protocol TG1007 (Table 7); assay type: biochemical
[11] = Metabolic stability in liver microsomes +/- S9 fraction (Table 8); assay type: in vitro ADME; conditions: 1 μM
Method: Metabolic stability of a select number of examples was tested in liver microsomes+/−addition of S9 fraction as described by Kuhnz, W. and Gieschen, H. (1998), Drug Metab. Dispos., 1120-1127. Test concentration was 1 μM and HPLC/MS-MS was used for detection.

[12] = system: Enterococcus faecium (3 strains); assay: MIC range, broader panel of Quotient Bioresearch strains (Table 3)
[13] = system: Acinetobacter baumannii (12 strains); assay: MIC range, broader panel of Quotient Bioresearch strains (Table 4); assay type: cell-based
bacterial gyrase = bacterial gyrase (Escherichia coli, UniProt P0AES4+P0AES6); assay: Inhibition of topoisomerases activity in vitro, Topogen protocol TG1003 (Table 7); assay type: biochemical
[14] = system: Klebsiella pneumonia (4 strains); assay: MIC range, broader panel of Quotient Bioresearch strains (Table 4); assay type: cell-based; conditions: Klebsiella pneumoniae
[15] = system: Pseudomonas aeruginosa (12 strains); assay: as above; assay type: cell-based

Chain of bacterial topoisomerase IV (P20083 whole entry): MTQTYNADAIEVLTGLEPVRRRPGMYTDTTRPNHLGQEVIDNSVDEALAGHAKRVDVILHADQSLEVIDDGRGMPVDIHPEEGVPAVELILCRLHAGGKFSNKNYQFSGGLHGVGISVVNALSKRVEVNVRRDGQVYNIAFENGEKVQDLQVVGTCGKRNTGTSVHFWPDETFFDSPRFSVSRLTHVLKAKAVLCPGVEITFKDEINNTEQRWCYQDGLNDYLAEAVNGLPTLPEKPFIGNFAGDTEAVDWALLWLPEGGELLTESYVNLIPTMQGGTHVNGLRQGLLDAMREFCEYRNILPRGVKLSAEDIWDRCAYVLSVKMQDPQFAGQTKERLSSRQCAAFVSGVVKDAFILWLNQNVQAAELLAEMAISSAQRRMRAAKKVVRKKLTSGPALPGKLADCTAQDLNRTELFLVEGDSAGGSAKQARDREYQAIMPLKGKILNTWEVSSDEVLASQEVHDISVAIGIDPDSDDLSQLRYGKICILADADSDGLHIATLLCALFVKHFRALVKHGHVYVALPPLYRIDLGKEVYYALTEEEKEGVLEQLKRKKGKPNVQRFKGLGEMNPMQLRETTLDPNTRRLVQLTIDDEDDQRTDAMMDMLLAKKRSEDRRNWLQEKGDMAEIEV
Chain of bacterial topoisomerase IV (P0AFI2 whole entry): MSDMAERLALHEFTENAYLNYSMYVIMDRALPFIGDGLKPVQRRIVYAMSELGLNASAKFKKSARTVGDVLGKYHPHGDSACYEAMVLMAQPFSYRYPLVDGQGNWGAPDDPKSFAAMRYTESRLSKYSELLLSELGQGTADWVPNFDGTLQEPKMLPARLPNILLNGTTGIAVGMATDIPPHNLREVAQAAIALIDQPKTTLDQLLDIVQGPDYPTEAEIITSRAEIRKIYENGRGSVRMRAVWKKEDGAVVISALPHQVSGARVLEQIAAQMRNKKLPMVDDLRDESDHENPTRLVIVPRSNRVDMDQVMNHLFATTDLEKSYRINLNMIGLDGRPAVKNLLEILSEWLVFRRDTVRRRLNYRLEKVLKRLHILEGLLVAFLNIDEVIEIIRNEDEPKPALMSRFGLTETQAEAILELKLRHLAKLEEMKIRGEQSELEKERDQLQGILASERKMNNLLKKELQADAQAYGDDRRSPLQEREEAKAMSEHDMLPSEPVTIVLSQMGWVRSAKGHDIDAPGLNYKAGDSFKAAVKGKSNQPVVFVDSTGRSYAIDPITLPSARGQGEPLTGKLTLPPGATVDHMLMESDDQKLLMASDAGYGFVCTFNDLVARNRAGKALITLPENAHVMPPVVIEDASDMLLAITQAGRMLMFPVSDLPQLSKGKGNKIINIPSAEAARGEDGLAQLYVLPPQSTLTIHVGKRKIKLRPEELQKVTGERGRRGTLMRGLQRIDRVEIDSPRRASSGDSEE
Chain of bacterial gyrase (P0AES4 whole entry, one chain of several): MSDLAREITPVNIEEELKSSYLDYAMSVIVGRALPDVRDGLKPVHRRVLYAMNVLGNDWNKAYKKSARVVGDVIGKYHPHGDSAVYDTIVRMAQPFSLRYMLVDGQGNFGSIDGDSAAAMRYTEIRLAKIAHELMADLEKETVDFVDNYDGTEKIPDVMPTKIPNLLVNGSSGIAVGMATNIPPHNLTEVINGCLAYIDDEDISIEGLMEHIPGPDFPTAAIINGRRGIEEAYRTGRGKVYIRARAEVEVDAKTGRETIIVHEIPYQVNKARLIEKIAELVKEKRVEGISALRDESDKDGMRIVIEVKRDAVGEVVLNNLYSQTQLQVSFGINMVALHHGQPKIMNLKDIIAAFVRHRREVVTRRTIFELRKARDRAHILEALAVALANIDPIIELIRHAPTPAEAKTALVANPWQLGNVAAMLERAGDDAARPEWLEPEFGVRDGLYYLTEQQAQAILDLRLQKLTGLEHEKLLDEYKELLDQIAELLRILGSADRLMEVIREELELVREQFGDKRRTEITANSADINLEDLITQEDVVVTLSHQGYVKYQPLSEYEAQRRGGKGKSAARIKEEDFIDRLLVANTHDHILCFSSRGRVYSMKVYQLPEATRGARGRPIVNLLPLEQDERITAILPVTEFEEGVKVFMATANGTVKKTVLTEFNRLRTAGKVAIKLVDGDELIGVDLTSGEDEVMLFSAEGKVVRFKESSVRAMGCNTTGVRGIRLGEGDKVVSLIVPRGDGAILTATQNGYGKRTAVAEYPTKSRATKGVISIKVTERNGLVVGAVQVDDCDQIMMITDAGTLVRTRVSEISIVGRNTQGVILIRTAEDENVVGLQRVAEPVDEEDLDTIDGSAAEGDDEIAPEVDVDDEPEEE

Question: With `Cc1c(-c2ccc3[nH]ncc3c2)ccn2c(=O)c(C(=O)[O-])cc(C3CC3)c12.[K+]` [Example 23 K salt, potassium 1-cyclopropyl-8-(1H-indazol-5-yl)-9-methyl-4-oxo-4H-quinolizine-3-carboxylate] as the compound, how does the “Log reduction (LgR) from vehicle control (CFU/g)” value ([1]; E. coli ATCC 25922, mouse thigh) read?
Answer: 2.82

Question: And the “Log reduction (LgR) from vehicle control (CFU/g)” value ([1]; MRSA ATCC 43300, mouse thigh)?
Answer: 4.66

Question: What about the MIC ([2]; read-out: MIC Range High, Group C Streptococcus (4 strains)) of the same compound?
Answer: 0.03 µg/mL

Question: And the MIC ([2]; read-out: MIC Range Low, Group C Streptococcus (4 strains))?
Answer: ≤ 0.015 µg/mL

Question: What about the MIC50 ([2]; read-out: MIC Range Median, Group C Streptococcus (4 strains)) of the same compound?
Answer: ≤ 0.015 µg/mL

Question: What about the MIC ([3]; read-out: MIC Range Low, Streptococcus pneumonia (5 strains)) of the same compound?
Answer: ≤ 0.015 µg/mL

Question: What about the MIC50 ([3]; read-out: MIC Range Median, Streptococcus pneumonia (5 strains)) of the same compound?
Answer: 0.03 µg/mL

Question: What about the MIC ([4]; read-out: MIC Range High, Escherichia coli (6 strains)) of the same compound?
Answer: 16 µg/mL

Question: What about the MIC ([4]; read-out: MIC Range Low, Escherichia coli (6 strains)) of the same compound?
Answer: ≤ 0.015 µg/mL

Question: And the MIC50 ([4]; read-out: MIC Range Median, Escherichia coli (6 strains))?
Answer: 4 µg/mL

Question: And the MIC ([5]; read-out: MIC Range High, Burkholderia cepacia (5 strains))?
Answer: 0.25 µg/mL

Question: What about the MIC ([5]; read-out: MIC Range Low, Burkholderia cepacia (5 strains)) of the same compound?
Answer: ≤ 0.015 µg/mL

Question: What about the MIC50 ([5]; read-out: MIC Range Median, Burkholderia cepacia (5 strains)) of the same compound?
Answer: 0.06 µg/mL

Question: What about the MIC ([6]; read-out: MIC Range High, Streptococcus pyogenes (4 strains)) of the same compound?
Answer: 0.03 µg/mL

Question: And the MIC ([6]; read-out: MIC Range Low, Streptococcus pyogenes (4 strains))?
Answer: ≤ 0.015 µg/mL

Question: And the MIC50 ([6]; read-out: MIC Range Median, Streptococcus pyogenes (4 strains))?
Answer: 0.03 µg/mL

Question: What about the solubility at 24 h (physchem; fassgf or other biorelevant) of the same compound?
Answer: 105 µM

Question: And the solubility at 24 h (physchem; pH 7.4, aqueous buffer)?
Answer: 37 µM

Question: And the solubility at 24 h (physchem; simulated gastric fluid)?
Answer: 8 µM

Question: And the IC50 (human topoisomerase I)?
Answer: > 140 µM

Question: And the MIC ([7]; read-out: MIC Range Low, Enterococcus faecalis (5 strains))?
Answer: ≤ 0.015 µg/mL

Question: And the MIC50 ([7]; read-out: MIC Range Median, Enterococcus faecalis (5 strains))?
Answer: ≤ 0.015 µg/mL

Question: And the MIC50 ([8]; 16 h, Median of the strain panel)?
Answer: ≤ 0.015 µg/mL

Question: And the MIC ([8]; High of the strain panel, read-out: MIC Range High, Haemophilus influenza (5 strains))?
Answer: ≤ 0.015 µg/mL

Question: What about the MIC ([8]; Low of the strain panel, read-out: MIC Range Low, Haemophilus influenza (5 strains)) of the same compound?
Answer: ≤ 0.015 µg/mL

Question: And the MIC [9]?
Answer: ≤ 0.015 µg/mL

Question: What about the IC50 [10] of the same compound?
Answer: 4.34 µM

Question: What about the “Mean Parent Remaining” value ([11]; Liver microsomes + S9, human) of the same compound?
Answer: 80%

Question: And the “Mean Parent Remaining” value ([11]; Liver microsomes + S9, mouse)?
Answer: 2%

Question: What about the “Mean Parent Remaining” value ([11]; Liver microsomes, human) of the same compound?
Answer: 67%

Question: What about the “Mean Parent Remaining” value ([11]; Liver microsomes, mouse) of the same compound?
Answer: 2%

Question: What about the MIC ([12]; read-out: MIC Range Low, Enterococcus faecium (3 strains)) of the same compound?
Answer: 0.06 µg/mL

Question: And the MIC50 ([12]; read-out: MIC Range Median, Enterococcus faecium (3 strains))?
Answer: 0.25 µg/mL

Question: And the MIC ([13]; read-out: MIC Range High, Acinetobacter baumannii (12 strains))?
Answer: 8 µg/mL

Question: What about the MIC ([13]; read-out: MIC Range Low, Acinetobacter baumannii (12 strains)) of the same compound?
Answer: 0.03 µg/mL

Question: And the MIC50 ([13]; read-out: MIC Range Median, Acinetobacter baumannii (12 strains))?
Answer: 3 µg/mL

Question: What about the IC50 (bacterial gyrase) of the same compound?
Answer: ≤ 1.39 µM

Question: And the MIC ([14]; read-out: MIC Range High, Klebsiella pneumonia (4 strains))?
Answer: 16 µg/mL

Question: And the MIC ([14]; read-out: MIC Range Low, Klebsiella pneumonia (4 strains))?
Answer: 0.06 µg/mL

Question: What about the MIC50 ([14]; read-out: MIC Range Median, Klebsiella pneumonia (4 strains)) of the same compound?
Answer: 5 µg/mL

Question: What about the MIC ([15]; read-out: MIC Range High, Pseudomonas aeruginosa (12 strains)) of the same compound?
Answer: 16 µg/mL

Question: What about the MIC ([15]; read-out: MIC Range Low, Pseudomonas aeruginosa (12 strains)) of the same compound?
Answer: 0.25 µg/mL

Question: And the MIC50 ([15]; read-out: MIC Range Median, Pseudomonas aeruginosa (12 strains))?
Answer: 2 µg/mL
